Laboratory results reported in publication PMC8291035 (Biochemical pharmacology, 2021).

Molecular target: ABCB1 (P-glycoprotein, P-gp, MDR1) (Homo sapiens, UniProt P08183)
Experiment: cell-based

ABCB1 (P-glycoprotein, P-gp, MDR1), sequence (P08183 whole entry): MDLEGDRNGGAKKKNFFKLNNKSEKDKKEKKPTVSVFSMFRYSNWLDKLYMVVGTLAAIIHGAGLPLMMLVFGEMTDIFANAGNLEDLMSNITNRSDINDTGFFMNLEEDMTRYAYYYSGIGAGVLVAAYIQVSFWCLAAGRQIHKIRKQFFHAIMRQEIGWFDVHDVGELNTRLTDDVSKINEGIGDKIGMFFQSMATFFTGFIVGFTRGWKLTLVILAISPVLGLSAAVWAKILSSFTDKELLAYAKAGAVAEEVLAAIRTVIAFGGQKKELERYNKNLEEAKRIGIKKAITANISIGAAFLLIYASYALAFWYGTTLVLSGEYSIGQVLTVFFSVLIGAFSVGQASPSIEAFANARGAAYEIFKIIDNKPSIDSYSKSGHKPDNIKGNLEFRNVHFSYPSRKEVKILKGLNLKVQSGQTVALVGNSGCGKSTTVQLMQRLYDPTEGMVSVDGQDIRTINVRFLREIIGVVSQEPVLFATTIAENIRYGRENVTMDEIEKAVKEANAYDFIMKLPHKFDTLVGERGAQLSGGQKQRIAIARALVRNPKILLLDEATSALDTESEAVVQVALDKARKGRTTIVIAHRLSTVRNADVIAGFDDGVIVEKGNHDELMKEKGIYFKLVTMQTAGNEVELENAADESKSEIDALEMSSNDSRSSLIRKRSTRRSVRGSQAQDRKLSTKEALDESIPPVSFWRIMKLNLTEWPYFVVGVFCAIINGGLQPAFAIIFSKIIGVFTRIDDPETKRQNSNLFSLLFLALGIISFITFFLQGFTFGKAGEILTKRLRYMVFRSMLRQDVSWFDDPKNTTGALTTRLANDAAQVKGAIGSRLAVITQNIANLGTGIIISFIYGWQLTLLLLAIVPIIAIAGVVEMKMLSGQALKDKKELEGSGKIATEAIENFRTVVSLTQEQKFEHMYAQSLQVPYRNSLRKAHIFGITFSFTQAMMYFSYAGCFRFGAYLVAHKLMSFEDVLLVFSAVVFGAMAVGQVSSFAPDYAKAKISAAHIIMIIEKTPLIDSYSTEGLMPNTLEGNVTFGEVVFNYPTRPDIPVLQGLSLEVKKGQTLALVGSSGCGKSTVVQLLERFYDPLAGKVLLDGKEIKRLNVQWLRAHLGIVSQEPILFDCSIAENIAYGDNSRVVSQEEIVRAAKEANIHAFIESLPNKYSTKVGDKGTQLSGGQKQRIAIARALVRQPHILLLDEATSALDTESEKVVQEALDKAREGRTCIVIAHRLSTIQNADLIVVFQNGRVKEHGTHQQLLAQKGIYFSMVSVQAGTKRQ

Question: `C=CC(=O)Nc1cc(Nc2nccc(-c3cn(C4CC4)c4ccccc34)n2)c(OC)cc1N(C)CCN(C)C` [almonertinib] was tested. Which IC50 did it give?
Answer: ~2000 nM
